Here are results for one substance from EP0082731A1, “The use of peptides as medicaments” (NOVO INDUSTRI A/S, priority 1981, dated 1983).

For series [1], the system named is isolated perfused rat pancreas. The experiment in a line: IRI (insulin) release from the isolated perfused rat pancreas. An excerpt:
Such a use should be especially safe as no hypoglycaemia will occur during treatment because of the lack of IRI releasing effect in the presence of hypoglycaemia and normoglycaemia.
Furthermore, it is stated therein that compounds of formula I show no or minor, negligible metabolic effects. […] Based thereupon it is surprising that compounds of formula I have an insulin releasing effect on animals primed with glucose corresponding to hyperglycaemia.

Another series deals with NMRI mice. The experiment in a line: Experiment E: acute toxicity study. The note with it: 10 mg intravenously as a bolus, about 500 mg/kg body weight. The series is classed as in vivo.
Another series deals with rat free fat cells. The experiment in a line: Lipolytic effect on rat free fat cells in vitro. Conditions: compared with glucagon. It counts as cell-based.

“glucagon-(1-21)-heneicosapeptide (HSQGTFTSDYSKYLDSRRAQD; Glucagon; UniProt P01275 53-73, looked up, fragment) [glucagon(1-21)]”: in series [1] (at hyperglycaemia), the insulin releasing effect entry is on record as “have this effect”. Moreover, the insulin release result in series [1] (buffer glucose concentration 0.6 mg/ml corresponding to hypoglycaemia, infused to the same concentration as glucagon) is listed as “no such effect”. Besides, in series [1] (buffer glucose concentration 1.5 mg/ml corresponding to mild hyperglycaemia), the “IRI (immunoreactive insulin) releasing effect, as share of glucagon's” value is reported as “about 60%”. Further, the “IRI (immunoreactive insulin) releasing effect, as share of glucagon's” value in series [1] (buffer glucose concentration 2.0 mg/ml corresponding to hyperglycaemia) is “about 85%”. Further, in the series on NMRI mice, the adverse effects result is “no adverse effects” and the deaths result is on record as “No deaths occurred”. In the series on rat free fat cells, the lipolytic effect entry was “negligible”.
